# In patent US9063122B2, “Biomodulators for treatment or prevention of disease” (priority 2008, dated 2015):
# How the values were obtained:
# [1] = tested on: cardiac cells (myoblasts); conditions: cited from earlier work
# white cells = conditions: in vitro; cited from earlier work
# C2C12 muscle stem cells [2] = assay: C2C12 muscle stem cell culture with immunocytochemistry (Pax7, MyoD, Ki67, MHC); format: cell-based; conditions: for number of stem cells in culture: FIG. 2, TIBA at low to mid-level concentrations (range tested 0.0001-0.1 μg/ml)
# Description: (§1) Reagents: The auxin 2,4-Dichlorophenoxyacetic acid, and auxin antagonist, TIBA (2,3,5-triiodobenzoic acid), are purchased from Sigma-Aldrich (St. Louis, Mo.), After dissolving, these compounds are stored at −20° C. Concentrations used are 0.0001, 0.001, 0.01 and 0.1 μg/ml.
# C2C12 muscle stem cells are used. Cells from low-passage frozen stocks are seeded in a 10 cm culture dish. After reaching 60% confluence, cells are passaged into an 8-well chamber slide (BD Biosciences, CA, USA). C2C12 cells are seeded on an 8-well chamber slide (3.5×10^3 cells/well). On day 3 after exposure to biomodulator or control, cells are fixed for immunocytochemistry (ICC) of MyoD and Ki67. For MHC and Pax7 immunostaining, cell culture media is replaced from the growth media (GM) to the differentiation media (DM) to induce terminal differentiation at day 5, and then cells are fixed for ICC of MHC and Pax7 at day 8. Media change and compound administration are performed daily.
# For ICC, cells are fixed with 4% paraformaldehyde (PFA)/PBS for 20 min at ambient temperature. After being washed with PBS, cells are soaked in 0.1% Triton-X/PBS for 15 min at RT and blocked with 5% normal goat serum (NGS)/PBS to inhibit non-specific binding of antibodies for 60 min at ambient temperature. Primary antibodies are applied, and cells are incubated overnight at 4° C. The primary antibodies are anti-Pax7 mouse monoclonal (Developmental Studies Hybridoma Bank (DSHB), IA), anti-MyoD mouse monoclonal (DSHB), anti-Myosin Heavy Chain mouse monoclonal (MF20; DSHB) and anti-Ki67 rabbit polyclonal (Thermo Fisher Scientific, CA) antibodies.
# [3] = tested on: murine colonic tumor, colon 26; assay: Treatment of colon 26 tumors in mice; format: in vivo, CDF1 mice; conditions: 1 mg in 1 ml on days 7, 11 and 15, under the skin of the back and into tail vein; palpation
# Description: Treatment of tumors in mice. A pharmaceutical composition of biomodulator 3-indolyl-acetic acid, or 6-furfurylaminopurine are prepared at 10 mg in 10 ml of physiological saline. 10 mg of a murine colonic tumor, colon 26, is inoculated under the skin of the back of CDF1 mice (day 0). After one week, the tumor is measured to calculate the volume of the tumor and the mice are classified into several groups (each group: n=5). On days 7, 11 and 15, the tumor-inoculated mice are bolusly injected under the skin of their backs and into their tail veins with 1 mg of the biomodulator in a volume of 1 ml. Control and comparative groups of mice are similarly injected with saline. Complete regression of the colonic tumor is determined by palpation. Subjects in which the tumor […] by palpation on the 60th day are deemed to have their tumors cured completely.
# [4] = tested on: fibroblasts in human skin; conditions: cited from earlier work
# [5] = tested on: human myeloid leukaemia cells; conditions: cited from earlier work
# [6] = tested on: C33A cervical carcinoma cells; assay: Cellular ATP level (ViaLight) cell viability assay; format: cell-based; conditions: 0.5 μM, 72 hours after treatment
# From the text: (§2) Selected cell lines include C33A cervical carcinoma cells, Mrc-5 normal lung fibroblasts, PC-3 human prostatic carcinoma cell line, OVCAR-3 human ovarian carcinoma cell line, H460 non-small cell lung cancer cell line, A549 human lung carcinoma cell line, H1299 human non-small cell lung cancer cells, MCF-7 human breast cancer cell line, SW-480 human adenocarcinoma cell line, B16-F1 mouse melanoma cell line (American Type Culture Collection, Manassas, Va., USA), HMEC normal mammary epithelial cells (Clonetics San Diego, Calif., USA) and ADR-RES human breast cancer cell line (NCI, MD, USA), which are cultured in the media recommended by the American Type Culture Collection. The cell lines are plated in 96-well microliter plates (PerkinElmer Life Sciences Inc., Boston, Mass., USA) at a confluency that allows them to reach confluence after 4 days of growth. One day after plating, the cells are treated with various concentrations of biomodulator. Stock solutions of the biomodulator are prepared in dimethyl sulfoxide (Sigma-Aldrich Inc., St. Louis, Mo., USA), diluted in the recommended media and then added to the cells. The total dimethyl sulfoxide on the cells is 1%. After 3 days of incubation the ATP levels in the cells are quantified using a luminescent ViaLight detection system (Bio-Whittaker, MD, USA). […]
# [7] = tested on: H1299 human non-small cell lung cancer cells; assay: Cellular ATP level (ViaLight) cell viability assay; format: cell-based; conditions: 0.5 μM, 72 hours after treatment
# From the text: as §2
# [8] = tested on: ten different cancer cell lines; assay: Cellular ATP level (ViaLight) assay, panel of cancer cell lines; format: cell-based; conditions: various concentrations
# From the text: as §2
# C2C12 muscle stem cells [9] = assay: WST-1 cell growth assay; format: cell-based; conditions: day 3; 0.001 μg/ml and 0.0001 μg/ml
# Description: as §1
# Cell growth parameters are measured by WST assay. Cell proliferation reagent WST-1 is purchased from Roche (NJ). Assays are performed according to the manufacturer's protocol. Cells are seeded on a 96-well cell culture plate (1.5×10^3 cells/well), and absorbance (A450-A690) is measured at day 3.
smiles,measurement,setting,value
c1nc2nc(Nc3ccc(N4CCOCC4)cc3)nc(NC3CCCCC3)c2[nH]1 [reversine],de-differentiation of cells,[1],de-differentiate into osteoblasts and adipocytes
"CC1=CC(=O)CC(C)(C)[C@@]1(O)/C=C/C(C)=C\C(=O)O [ABA, Abscisic acid]",phagocytosis in white cells,white cells,stimulation of phagocytosis
"O=C(O)COc1ccc(Cl)cc1Cl [auxin, 2,4-Dichlorophenoxyacetic acid]",number of stem cells in culture,C2C12 muscle stem cells [2],opposite that of TIBA
same,global cell proliferation,"C2C12 muscle stem cells [2]; FIG. 4, high Auxin concentrations",reduced
same,myotube formation,"C2C12 muscle stem cells [2]; FIG. 5, low auxin concentration",increase
same,myotube formation,"C2C12 muscle stem cells [2]; FIG. 5, mid to high auxin concentration (0.01 μg/ml)",reduced
c1coc(CNc2ncnc3nc[nH]c23)c1 [6-furfurylaminopurine],tumor regression,[3],produces tumor regression
same,life span of fibroblasts,[4],prolongs the life span of fibroblasts
same,granulocytic differentiation and apoptosis,[5],induction of granulocytic differentiation
O=C(O)Cc1c[nH]c2ccccc12 [3-indolyl-acetic acid],lowering of ATP levels compared with normal cell lines HMEC and MRC-5,[6],significantly more effective at lowering ATP levels
same,lowering of ATP levels compared with normal cell lines HMEC and MRC-5,[7],significantly more effective at lowering ATP levels
same,decrease of cellular ATP levels compared with HMEC normal mammary epithelial cell line,[8],greater efficacy in decreasing cellular ATP levels
same,tumor regression,[3],produces tumor regression
"O=C(O)c1cc(I)cc(I)c1I [TIBA, 2,3,5-triiodobenzoic acid]",number of stem cells in culture,C2C12 muscle stem cells [2],reduces the number of stem cells
same,myotube formation,"C2C12 muscle stem cells [2]; FIG. 6, increased concentrations of TIBA",increased myotube formation
same,number of MyoD positive myoblasts,C2C12 muscle stem cells [2]; day 3,dose-dependent decrease
same,"cell number, WST-1 cell growth assay",C2C12 muscle stem cells [9],increases cell number
